Type in all cases: cell-based
Experiment [1] relates to Chikungunya virus (CHIKV). Briefly: microbe, parasite or virus in culture. The conditions noted are these: Chikungunya virus, Vero, 48 h, read-out: Percent viral inhibition CHKV.
The next experiment has as its system dengue virus (DENV). Briefly: microbe, parasite or virus in culture. The conditions noted are these: Dengue virus, Vero, 120 h, read-out: Percent viral inhibition DENY.
In the next experiment the test system is Marburg virus (MARV). Briefly: organism not typed. The conditions noted are these: Vero, 72 h, read-out: Percent viral inhibition MARV.

For the compound `O=C(O)CC1CCN(Cc2cc(Oc3cnc(N4CCNC5(CC5)C4)nc3)nc(-c3cc(Cl)cc(Cl)c3)c2)CC1` [Example 164, 2-(1-((2-((2-(4,7-diazaspiro[2.5]octan-7-yl)pyrimidin-5-yl)oxy)-6-(3,5-dichlorophenyl)pyridin-4-yl)methyl)piperidin-4-yl)acetic acid], the results for the inhibition at 1 µM (in experiment [1]; in the experiment on dengue virus (DENV); with Marburg virus (MARV)) were 34.6%, 45.5% and 36.1%, respectively.
Taken in the same sequence, the figures for `NC1(CO)CCN(c2ncc(Oc3cc(CN4CCC(CC(=O)O)CC4)cc(-c4cc(Cl)cc(Cl)c4)n3)cn2)CC1` [Example 165, 2-(1-((2-((2-(4-amino-4-(hydroxymethyl)piperidin-1-yl)pyrimidin-5-yl)oxy)-6-(3,5-dichlorophenyl)pyridin-4-yl)methyl)piperidin-4-yl) acetic acid] were 18.6%, 36.9% and 50.9%.
As for `O=C(O)CC1CCN(Cc2cc(Oc3ccc(N4CCCNCC4)nc3)nc(-c3cc(Cl)cc(Cl)c3)c2)CC1` [Example 166, 2-(1-((2-((6-(1,4-diazepan-1-yl)pyridin-3-yl)oxy)-6-(3,5-dichlorophenyl)pyridin-4-yl)methyl)piperidin-4-yl) acetic acid], the inhibition at 1 µM amounted to 35.3% in experiment [1], 21.3% in the experiment with dengue virus (DENV) and 45% with Marburg virus (MARV).
Regarding `CC(=O)NCC1CCN(Cc2cc(Oc3cnc(N4CCN(CCS(C)(=O)=O)CC4)nc3)cc(-c3cc(Cl)cc(Cl)c3)c2)CC1` [Example 167, N-((1-((3′,5′-dichloro-5-((2-(4-(2-(methylsulfonyl)ethyl)piperazin-1-yl)pyrimidin-5-yl)oxy)-[1,1′-biphenyl]-3-yl)methyl)piperidin-4-yl)methyl)acetamide], the inhibition at 1 µM in experiment [1] is 0%; in the experiment on dengue virus (DENV), 41.3%; in the experiment on Marburg virus (MARV) it was 0%.
As for `CC(=O)NCC1CCN(Cc2cc(Oc3cnc(N4CCN(CCC(=O)O)CC4)nc3)cc(-c3cc(Cl)cc(Cl)c3)c2)CC1` [Example 168], the inhibition at 1 µM in experiment [1] was 29.6%; in the experiment with dengue virus (DENV), 38.9%; with Marburg virus (MARV), 60.3%.
Taken in the same sequence, the figures for `CC(=O)NCC1CCN(Cc2cc(Oc3ccc(N4CCN(CCC(=O)O)CC4)nn3)nc(-c3cc(Cl)cc(Cl)c3)c2)CC1` [Example 169, 3-(4-(6-((4-((4-(acetamidomethyl)piperidin-1-yl)methyl)-6-(3,5-dichlorophenyl)pyridin-2-yl)oxy)pyridazin-3-yl)piperazin-1-yl)propanoic acid] were 0%, 0% and 16.4%.
Taken in the same sequence, the figures for `CC(=O)NCC1CCN(Cc2cc(Oc3cnc(N4CCN(CCC(N)=O)CC4)nc3)cc(-c3cc(Cl)cc(Cl)c3)c2)CC1` [Example 170, 3-(4-(5-((5-((4-(acetamidomethyl)piperidin-1-yl)methyl)-3′,5′-dichloro-[1,1′-biphenyl]-3-yl)oxy)pyrimidin-2-yl)piperazin-1-yl)propanamide] were 7.29%, 57.6% and 10.3%.
Taken in the same sequence, the figures for `CNC(=O)NCC1CCN(Cc2cc(Oc3cnc(N4CCN(CCCO)CC4)nc3)nc(-c3cc(Cl)cc(Cl)c3)c2)CC1` [Example 171, 1-((1-((2-(3,5-dichlorophenyl)-6-((2-(4-(3-hydroxypropyl)piperazin-1-yl)pyrimidin-5-yl)oxy)pyridin-4-yl)methyl)piperidin-4-yl)methyl)-3-methylurea] were 0%, 41.7% and 0%.
For the compound `O=C(O)CC1CCN(Cc2cc(Oc3cnc(N4CCN(CC(O)CO)CC4)nc3)nc(-c3cc(Cl)cc(Cl)c3)c2)CC1` (stereo not drawn) [Example 177, 2-(1-((2-(3,5-dichlorophenyl)-6-((2-(4-(2,3-dihydroxypropyl)piperazin-1-yl)pyrimidin-5-yl)oxy)pyridin-4-yl)methyl)piperidin-4-yl)acetic acid], the inhibition at 1 µM in experiment [1] is 14.3%; with dengue virus (DENV) it was 24%; with Marburg virus (MARV), 37%.
Regarding `CC(=O)NCC1CCN(Cc2cc(Oc3ccc(N4CC[N+](C)([O-])CC4)nc3)nc(-c3cc(Cl)cc(Cl)c3)c2)CC1` [Example 178, 4-(5-((4-((4-(acetamidomethyl)piperidin-1-yl)methyl)-6-(3,5-dichlorophenyl)pyridin-2-yl)oxy)pyridin-2-yl)-1-methylpiperazinel-oxide], the inhibition at 1 µM in experiment [1] came out at 30.4%; in the experiment with dengue virus (DENV), 71.1%; in the experiment with Marburg virus (MARV), 57.7%.
In the case of `CC(=O)NCC1CCN(Cc2cc(Oc3ccc(N4CC[N+](CCO)(CCO)CC4)nc3)nc(-c3cc(Cl)cc(Cl)c3)c2)CC1` [Example 179, 4-(5-((4-((4-(acetamidomethyl)piperidin-1-yl)methyl)-6-(3,5-dichlorophenyl)pyridin-2-yl)oxy)pyridin-2-yl)-1,1-bis(2-hydroxyethyl) piperazin-1-ium], the inhibition at 1 µM in experiment [1] was 5.87%; in the experiment on dengue virus (DENV) it was 42.1%; with Marburg virus (MARV) it was 27.4%.
Taken in the same sequence, the figures for `CC(=O)NCC1CCN(Cc2cc(Oc3ccc(N4CCN(CCO)CC4)nc3)nc(-c3cc(Cl)cc(Cl)c3)c2)CC1` [Example 180, N-((1-((2-(3,5-dichlorophenyl)-6-((6-(4-(2-hydroxyethyl)piperazin-1-yl)pyridin-3-yl)oxy)pyridin-4-yl)methyl)piperidin-4-yl)methyl)acetamide] were 0%, 10.4% and 25.4%.
Taken in the same sequence, the figures for `CC(=O)NCC1CCN(Cc2cc(Oc3ccc(N4CC[N+](C)(C)CC4)nc3)nc(-c3cc(Cl)cc(Cl)c3)c2)CC1` [Example 181, 4-(5-((4-((4-(acetamidomethyl)piperidin-1-yl)methyl)-6-(3,5-dichlorophenyl)pyridin-2-yl)oxy)pyridin-2-yl)-1,1-dimethylpiperazin-1-ium] were 11.7%, 49.1% and 12.5%.
Taken in the same sequence, the figures for `CC(=O)NCC1CCN(Cc2cc(Oc3ccc(N4C[C@@H]5C[C@H]4CN5CCS(C)(=O)=O)nc3)nc(-c3cc(Cl)cc(Cl)c3)c2)CC1` [Example 183, N-((1-((2-(3,5-dichlorophenyl)-6-((6-((1S,4S)-5-(2-(methylsulfonyl)ethyl)-2,5-diazabicyclo[2.2.1]heptan-2-yl)pyridin-3-yl)oxy)pyridin-4-yl)methyl)piperidin-4-yl)methyl)acetamide] were 16.4%, 21% and 74.8%.
Turning to `CC(=O)NCC1CCN(Cc2cc(Oc3ccc(N4C[C@H]5CC[C@@H](C4)N5CCC(=O)O)nc3)nc(-c3cc(Cl)cc(Cl)c3)c2)CC1` [Example 185, 3-((1R,5S)-3-(5-((4-((4-(acetamidomethyl)piperidin-1-yl)methyl)-6-(3,5-dichlorophenyl)pyridin-2-yl)oxy)pyridin-2-yl)-3,8-diazabicyclo[3.2.1]octan-8-yl) propanoic acid], the inhibition at 1 µM in experiment [1] worked out at 22.9%; with dengue virus (DENV), 0%; in the experiment with Marburg virus (MARV), 64.2%.
Take `CC(=O)NCC1CCN(Cc2cc(Oc3ccc(N4CCN(CCC(=O)O)[C@@H](C)C4)nc3)nc(-c3cc(Cl)cc(Cl)c3)c2)CC1` [Example 186]: the figures for the inhibition at 1 µM (in experiment [1]; in the experiment with dengue virus (DENV); in the experiment on Marburg virus (MARV)) were 19.9%, 53.9% and 30.6%, respectively.
Taken in the same sequence, the figures for `O=C(O)CC1CCN(Cc2cc(Oc3ccc(N4C[C@@H]5C[C@H]4CN5)nc3)nc(-c3cc(Cl)cc(Cl)c3)c2)CC1` [Example 187, 2-(1-((2-((6-((1S,4S)-2,5-diazabicyclo[2.2.1]heptan-2-yl)pyridin-3-yl)oxy)-6-(3,5-dichlorophenyl)pyridin-4-yl)methyl)piperidin-4-yl) acetic acid] were 22.4%, 84% and 24.1%.
Taken in the same sequence, the figures for `CC(=O)NCC1CCN(Cc2cc(Oc3ccc(N4CCCN(CCC(=O)O)CC4)nc3)nc(-c3cc(Cl)cc(Cl)c3)c2)CC1` [Example 190, 3-(4-(5-((4-((4-(acetamidomethyl)piperidin-1-yl)methyl)-6-(3,5-dichlorophenyl)pyridin-2-yl)oxy)pyridin-2-yl)-1,4-diazepan-1-yl)propanoic acid] were 2.11%, 41.8% and 44.8%.
Taken in the same sequence, the figures for `CC(=O)NCC1CCN(Cc2cc(Oc3ccc(N4CCN(CCC(=O)O)C(C)(C)C4)nc3)nc(-c3cc(Cl)cc(Cl)c3)c2)CC1` [Example 191] were 14.2%, 71.2% and 50.6%.
Consider `CC(=O)NCC1CCN(Cc2cc(Oc3ccc(N4CCNC(CO)C4)nc3)nc(-c3cc(Cl)cc(Cl)c3)c2)CC1` (stereo not drawn) [Example 195, N-((1-((2-(3,5-dichlorophenyl)-6-((6-(3-(hydroxymethyl)piperazin-1-yl)pyridin-3-yl)oxy)pyridin-4-yl)methyl)piperidin-4-yl)methyl)acetamide], for which the inhibition at 1 µM in experiment [1] is 18.1%; in the experiment with dengue virus (DENV) it was 39.4%; in the experiment on Marburg virus (MARV) it was 38.2%.
Taken in the same sequence, the figures for `CC(=O)NCC1CCN(Cc2cc(Oc3ccc(N4CCC5(CCNC5)C4)nc3)nc(-c3cc(Cl)cc(Cl)c3)c2)CC1` (stereo not drawn) [Example 199, N-((1-((2-((6-(2,7-diazaspiro[4.4]-nonan2-yl)pyridin-3-yl)oxy)-6-(3,5-dichlorophenyl)pyridin-4-yl)methyl)piperidin-4-yl)methyl)acetamide] were 21.6%, 49% and 18.5%.

As a reminder, the inhibition is how much of the control response was suppressed.

The values are drawn from patent US20230011571A1, “SMALL MOLECULE FURIN INHIBITORS FOR TREATING INFECTIOUS DISEASES” (BP Asset V, Inc., priority 2019, published 2023).
